{
  "source": "patent US20230142062A1",
  "about": "“THE APPLICATION OF ALOESIN IN THE PREPARATION OF PRODUCTS FOR PREVENTING OR TREATING OBESITY” (HAINAN MEDICAL UNIVERSITY, priority 2020, published 2023)",
  "format_in_all_cases": "cell-based, mouse",
  "key": {"FABP": {"system": "FABP", "test": "Real-time quantitative PCR, FABP mRNA in 3T3-L1 adipocytes", "details": "15 and 30 μM, qPCR", "experimental": "(§1) Total RNA extraction reagent (TIANGEN, China) was used to extract total RNA from 3T3-L1 adipocytes. Use 1st strand cDNA kit (Vazyme biotechnology) for reverse transcription into cDNA. SYBR Green PCR Master Mix Kit (Monad, China) reagent and CFX-1000 Touch instrument ([…]) were used to detect the mRNA level of adipocyte browning genes (Ucp-1 and PRDM16) and transcription factors (Fabp, Ppar-γ and C-EBPα). The following conditions were used for reverse transcription: 5 min at 25° C., 15 min at 50° C., and 5 min at 85° C. Amplification: initial denaturation at 95° C. for 30 seconds, followed by denaturation at 95° C. for 5 seconds and 59° C. for 30 seconds (40 cycles). The β-actin was used as a reference gene to standardize the qPCR reaction. The relative expression of genes was calculated based on the average Ct value between samples. Relative expression level=2^{[Cttarget gene−Ct (β-actin)]aloesin treatment group−[Cttarget gene−Ct(β-actin)] 3T3-L1adipocyte]}."}, "3T3-L1 adipocytes": {"system": "3T3-L1 adipocytes", "test": "Lipid accumulation in 3T3-L1 adipocytes (Oil Red O staining)", "details": "15 and 30 μM", "experimental": "(§2) Mouse 3T3-L1 preadipocytes were inoculated with high glucose culture medium (H-DMEM, Hyclon) containing 10% fetal bovine serum (Gibco) and antibiotics (100 U/mL penicillin G and […] streptomycin) at a density of 1×10^4 /mL in an incubator at 37° C. and 5% CO2 for 72 hours. In order to induce the differentiation of 3T3-L1 preadipocytes, when 80% cells are fused, on day 0, growth medium (GM) containing 10% fetal bovine serum, 10 μg/mL insulin (sigma), 1 μM dexamethasone (sigma), 0.5 mM isobutyl-1-Methylxanthine (sigma) was added therein. On the second day, the medium was replaced with a high-glycemic medium containing 10% calf serum and 10 μg/mL insulin. On the 10th day, a large number of lipid droplets accumulated during the differentiation of pre-adipocytes.\n(§3) The differentiated adipocytes were washed 3 times with PBS, fixed with 10% formaldehyde for 1 hour, then washed 3 times with PBS again, dried for 15 to 30 minutes and stained with Oil Red O working solution for 2 hours. Wash 2 times and 3 times with 60% isopropanol (IPA) and double distilled water respectively. A Zeiss fluorescence microscope (Tokyo, Japan) was used to collect images. 100% IPA extracts Oil Red O, and the absorbance at 490 nm was measured.\nAfter 3T3-L1 preadipocytes were induced to differentiate into adipocytes, aloesin (15 and 30 μM) was added to the adipocytes and cultured for 24 h and 48 h respectively."}, "IL-1β": {"system": "IL-1β", "test": "ELISA, IL-1β in supernatant of 3T3-L1 adipocytes", "details": "15 and 30 μM, 48 hours", "experimental": "(§4) The 3T3-L1 adipocytes were treated with aloesin for 48 hours, then the supernatant was collected, and the levels of adiponectin and IL-1β in the supernatant were detected with an ELISA kit (Proteintech, China). The ELISA reagent operation was carried out according to the manufacturer's instructions."}, "C-EBPα": {"system": "C-EBPα", "test": "Real-time quantitative PCR, C-EBPα mRNA in 3T3-L1 adipocytes", "details": "15 and 30 μM, qPCR", "experimental": "as §1"}, "3T3-L1 preadipocytes [1]": {"system": "3T3-L1 preadipocytes", "test": "Differentiation of preadipocytes after aloesin pretreatment (Oil Red O staining)", "details": "pretreated with 15 and 30 μM for 24 h and 48 h, then differentiated for 10 days", "experimental": "as §2, §3\n3T3-L1 pre-adipocytes were pre-incubated by the aloesin with concentration of 15 and 30 μM for 24 h and 48 h, respectively. […]"}, "PRDM16": {"system": "PRDM16", "test": "Real-time quantitative PCR, PRDM16 mRNA in 3T3-L1 adipocytes", "details": "qPCR", "experimental": "as §1"}, "UCP-1": {"system": "UCP-1", "test": "Real-time quantitative PCR, UCP-1 mRNA in 3T3-L1 adipocytes", "details": "qPCR", "experimental": "as §1"}, "adiponectin [2]": {"system": "adiponectin", "test": "Real-time quantitative PCR, adiponectin mRNA in 3T3-L1 adipocytes", "details": "15 μM, qPCR"}, "3T3-L1 preadipocytes [3]": {"system": "3T3-L1 preadipocytes", "test": "MTT cell viability of 3T3-L1 preadipocytes", "details": "15 and 30 μM aloesin, 24 h and 48 h", "experimental": "as §2\nCell viability was determined by MTT, 3T3-L1 preadipocytes were seeded in 96-well plates at a density of 1×10^4 /mL, cultured in an incubator for 24 hours, and then replaced with a medium respectively containing 10, 15, 30 and 60 μM aloesin to continuously cultivate for 24 h or 48 h. 0.5% MTT was added to the cells, after incubating for 1 hour at 37° C., the MTT solution was removed, and DMSO was added to dissolve. The absorbance at 570 nm was measured using an enzyme-labeled instrument (Molecular Devices, CA, USA). Cell viability (%) is expressed as a percentage relative to untreated control cells."}, "PPAR-γ": {"system": "PPAR-γ", "test": "Real-time quantitative PCR, PPAR-γ mRNA in 3T3-L1 adipocytes", "details": "15 and 30 μM, qPCR", "experimental": "as §1"}, "adiponectin [4]": {"system": "adiponectin", "test": "ELISA, adiponectin in supernatant of 3T3-L1 adipocytes", "details": "15 μM, 48 hours", "experimental": "as §4"}},
  "data": [
    {"compound": "CC(=O)Cc1cc(=O)c2c(C)cc(O)c([C@@H]3O[C@H](CO)[C@@H](O)[C@H](O)[C@H]3O)c2o1", "note": "[aloesin]", "values": [
      {"measurement": "expression of FABP (mRNA)", "setting": "FABP", "result": "did not affect"},
      {"measurement": "lipid accumulation of adipocytes", "setting": "3T3-L1 adipocytes; 48 h, compared with the control group", "result": "significantly reduce"},
      {"measurement": "lipid accumulation in 3T3-L1 adipocytes", "setting": "3T3-L1 adipocytes; treatment for 24 hours", "result": "did not affect"},
      {"measurement": "release of IL-1β in adipocytes", "setting": "IL-1β", "result": "reduce"},
      {"measurement": "expression of the transcription factor C-EBPα (mRNA)", "setting": "C-EBPα", "result": "increase"},
      {"measurement": "differentiation of 3T3-L1 preadipocytes", "setting": "3T3-L1 preadipocytes [1]", "result": "did not affect"},
      {"measurement": "expression of browning gene PDRM16 (mRNA)", "setting": "PRDM16", "result": "increase"},
      {"measurement": "expression of browning gene UCP-1 (mRNA)", "setting": "UCP-1", "result": "increase"},
      {"measurement": "mRNA expression of adiponectin in adipocytes", "setting": "adiponectin [2]", "result": "enhance"},
      {"measurement": "pre-adipocytes viability", "setting": "3T3-L1 preadipocytes [3]", "result": "did not influence"},
      {"measurement": "expression of PPAR-γ (mRNA)", "setting": "PPAR-γ", "result": "did not affect"},
      {"measurement": "release of adiponectin in adipocytes", "setting": "adiponectin [4]", "result": "enhance"}
    ]}
  ]
}
